According to BindingDB's records for doi:10.1021/ml500507v (University of Cambridge, 2015):

What was measured:
[1] = biological target: T1, 5-hydroxytryptamine receptor 2C (Homo sapiens, UniProt P28335); test: Inhibition of Cy3B conjugated serotonin analogue binding to human recombinant 5-HT2C receptor expressed in Swiss mouse 3T3 cell membranes after 60 mins by fluorescence polarization assay
T1 sequence (P28335 whole entry): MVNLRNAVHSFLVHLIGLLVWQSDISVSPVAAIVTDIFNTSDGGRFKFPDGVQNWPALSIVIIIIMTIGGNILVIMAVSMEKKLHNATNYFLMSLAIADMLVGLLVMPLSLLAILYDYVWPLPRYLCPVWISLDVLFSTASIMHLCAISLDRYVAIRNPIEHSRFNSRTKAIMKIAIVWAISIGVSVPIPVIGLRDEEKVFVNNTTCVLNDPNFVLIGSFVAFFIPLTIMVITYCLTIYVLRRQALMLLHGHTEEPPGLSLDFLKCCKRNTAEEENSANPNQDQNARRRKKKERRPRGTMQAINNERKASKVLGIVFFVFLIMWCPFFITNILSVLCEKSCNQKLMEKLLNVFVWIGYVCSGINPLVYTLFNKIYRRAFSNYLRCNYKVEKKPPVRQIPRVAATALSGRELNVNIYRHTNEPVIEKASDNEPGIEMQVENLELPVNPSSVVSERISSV

[2] = biological target: T1, 5-hydroxytryptamine receptor 2C; test: Agonist activity at human recombinant 5-HT2C receptor expressed in Swiss mouse 3T3 cell membranes after 30 to 40 mins by GTPgammaS recruitment assay

Row | Compound | Ki [1] [µM] | EC50 [2] [µM]
1 | c1ccc(CNc2nc(Cc3ccccc3)cc3c2CCNCC3)cc1 | 0.022 | 0.158
2 | CC(C)CNc1nc(Cc2ccccc2)cc2c1CCNCC2 | 0.012 | 0.036
3 | CCCNc1nc(Cc2ccccc2)cc2c1CCNCC2 | 0.004 | –
4 | CC(C)Nc1nc(Cc2ccccc2)cc2c1CCNCC2 | 0.013 | –
5 | CN(C)c1nc(Cc2ccccc2)cc2c1CCNCC2 | 0.012 | –
6 | c1ccc(Cc2cc3c(cn2)CCNCC3)cc1 | 0.035 | –

The next compounds have a lower Ki [1] than those just listed; values first:

Row | Ki [1] [µM] | EC50 [2] [µM] | Compound
7 | 0.0005 | – | c1ccc(Cc2cc3c(c(NCC4CC4)n2)CCNCC3)cc1
8 | 0.003 | 0.011 | CCNc1nc(Cc2ccccc2)cc2c1CCNCC2
9 | 0.003 | 0.009 | CNc1nc(Cc2ccccc2)cc2c1CCNCC2
